Data from ChEMBL document CHEMBL2203257 (Bioorg Med Chem Lett, 2012).

Key:
[1] = Half life in rat […] at 5 mg/kg, po; 1 mg/kg, iv; assay type: ADME, organism-based
[2] = Cmax in mouse at 3 mg/kg, po BID; assay type: ADME, organism-based; set-up: dose 3 mg/kg, route oral; settings: in vivo
[3] = molecular target: Activin receptor type-1B (Homo sapiens, UniProt P36896); assay: Inhibition of ACVR1B
[4] = molecular target: Ribosomal protein S6 kinase alpha-4 (Homo sapiens, UniProt O75676); assay: Inhibition of RPS6KA4
[5] = molecular target: eIF-2-alpha kinase GCN2 (Homo sapiens, UniProt Q9P2K8); assay: Inhibition of EIF2AK4
[6] = molecular target: Mitogen-activated protein kinase kinase kinase kinase 2 (Homo sapiens, UniProt Q12851); assay: Inhibition of MAP4K2
[7] = molecular target: Aurora kinase B (Homo sapiens, UniProt Q96GD4); assay: Inhibition of AURKB
[8] = molecular target: Tyrosine-protein kinase Fer (Homo sapiens, UniProt P16591); assay: Inhibition of FER
[9] = molecular target: Dual specificity protein kinase CLK2 (Homo sapiens, UniProt P49760); assay: Inhibition of CLK2
[10] = molecular target: Ephrin type-B receptor 4 (Homo sapiens, UniProt P54760); assay: Inhibition of EPHB4
[11] = molecular target: Non-receptor tyrosine-protein kinase TYK2 (Homo sapiens, UniProt P29597); assay: Inhibition of TYK2
[12] = molecular target: Tyrosine-protein kinase Lck (Homo sapiens, UniProt P06239); assay: Inhibition of LCK
[13] = molecular target: Cyclin-dependent kinase 7 (Homo sapiens, UniProt P50613); assay: Inhibition of CDK7
[14] = molecular target: Hepatocyte growth factor receptor (Homo sapiens, UniProt P08581); assay: Inhibition of MET
[15] = molecular target: Cytochrome P450 2C9 (Homo sapiens, UniProt P11712); assay: Inhibition of CYP2C9 at >20 uM; assay type: ADME
[16] = molecular target: Calcium/calmodulin-dependent protein kinase type II subunit gamma (Homo sapiens, UniProt Q13555); assay: Inhibition of CAMK2G
[17] = molecular target: Serine/threonine-protein kinase ATR (Homo sapiens, UniProt Q13535); assay: Inhibition of ATR
[18] = molecular target: Serine/threonine-protein kinase ULK3 (Homo sapiens, UniProt Q6PHR2); assay: Inhibition of ULK3
[19] = molecular target: Serine/threonine-protein kinase PLK4 (Homo sapiens, UniProt O00444); assay: Inhibition of PLK4
[20] = molecular target: Serine/threonine-protein kinase 17B (Homo sapiens, UniProt O94768); assay: Inhibition of STK17B
[21] = molecular target: Dual specificity mitogen-activated protein kinase kinase 1 (Homo sapiens, UniProt Q02750); assay: Inhibition of MAP2K1
[22] = molecular target: Glycogen synthase kinase-3 beta (Homo sapiens, UniProt P49841); assay: Inhibition of GSK3B
[23] = test system: Mus musculus; assay: Antiarthritic activity against collagen-induced arthritis mouse model assessed as inhibition of disease progression at 3 mg/kg, po BID for 14 days; assay type: functional; settings: 336 h
[24] = molecular target: Cyclin-dependent kinase 6 (Homo sapiens, UniProt Q00534); assay: Inhibition of CDK6
[25] = test system: Mus musculus; assay: Antiinflammatory activity in mouse air pouch model assessed as effect on IL-8-induced migration of granulocytes into air pouch at 1 mg/kg, po; assay type: functional
[26] = molecular target: Mitogen-activated protein kinase kinase kinase 1 (Homo sapiens, UniProt Q13233); assay: Inhibition of MAP3K1
[27] = molecular target: Casein kinase II subunit alpha' (Homo sapiens, UniProt P19784); assay: Inhibition of CSNK2A2
[28] = molecular target: Dual specificity protein kinase CLK1 (Homo sapiens, UniProt P49759); assay: Inhibition of CLK1
[29] = molecular target: Mitogen-activated protein kinase 14 (Homo sapiens, UniProt Q16539); assay: Inhibition of MAPK14
[30] = molecular target: Serine/threonine-protein kinase TBK1 (Homo sapiens, UniProt Q9UHD2); assay: Inhibition of TBK1
[31] = molecular target: Epidermal growth factor receptor (Homo sapiens, UniProt P00533); assay: Inhibition of EGFR
[32] = molecular target: Tyrosine-protein kinase Fgr (Homo sapiens, UniProt P09769); assay: Inhibition of FGR
[33] = Oral bioavailability in cynomolgus monkey; assay type: ADME, organism-based, Macaca fascicularis; settings: in vivo

Chain of Mitogen-activated protein kinase 14 (Q16539 whole entry): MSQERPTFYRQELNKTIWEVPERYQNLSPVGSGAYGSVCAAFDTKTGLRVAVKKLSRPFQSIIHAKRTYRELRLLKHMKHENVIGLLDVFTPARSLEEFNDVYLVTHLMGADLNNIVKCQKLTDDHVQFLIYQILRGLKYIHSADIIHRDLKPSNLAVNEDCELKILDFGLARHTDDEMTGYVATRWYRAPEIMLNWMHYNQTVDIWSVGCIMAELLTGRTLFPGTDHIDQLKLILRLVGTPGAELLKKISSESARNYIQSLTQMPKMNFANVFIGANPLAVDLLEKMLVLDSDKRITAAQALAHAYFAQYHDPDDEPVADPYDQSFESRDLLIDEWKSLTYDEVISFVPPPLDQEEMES
Chain of Serine/threonine-protein kinase TBK1 (Q9UHD2 whole entry): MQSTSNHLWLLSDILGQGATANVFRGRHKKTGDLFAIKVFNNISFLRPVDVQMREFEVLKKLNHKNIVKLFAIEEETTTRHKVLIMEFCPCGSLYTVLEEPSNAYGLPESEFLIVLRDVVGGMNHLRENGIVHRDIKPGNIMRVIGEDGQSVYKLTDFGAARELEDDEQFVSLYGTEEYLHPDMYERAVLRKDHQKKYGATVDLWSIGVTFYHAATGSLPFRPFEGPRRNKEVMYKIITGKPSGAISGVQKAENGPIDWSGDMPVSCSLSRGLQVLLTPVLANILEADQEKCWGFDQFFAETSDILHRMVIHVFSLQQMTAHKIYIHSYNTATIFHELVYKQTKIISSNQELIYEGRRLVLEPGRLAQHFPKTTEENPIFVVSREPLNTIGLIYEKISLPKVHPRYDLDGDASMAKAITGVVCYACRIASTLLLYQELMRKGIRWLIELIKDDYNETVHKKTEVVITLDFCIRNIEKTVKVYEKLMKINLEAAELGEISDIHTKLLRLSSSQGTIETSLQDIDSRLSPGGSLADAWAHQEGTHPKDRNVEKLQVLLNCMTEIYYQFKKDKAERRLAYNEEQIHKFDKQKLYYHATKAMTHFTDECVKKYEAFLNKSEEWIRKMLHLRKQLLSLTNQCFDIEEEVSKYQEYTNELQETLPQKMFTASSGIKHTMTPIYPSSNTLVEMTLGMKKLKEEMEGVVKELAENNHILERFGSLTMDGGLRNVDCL
Chain of Serine/threonine-protein kinase ATR (Q13535 whole entry): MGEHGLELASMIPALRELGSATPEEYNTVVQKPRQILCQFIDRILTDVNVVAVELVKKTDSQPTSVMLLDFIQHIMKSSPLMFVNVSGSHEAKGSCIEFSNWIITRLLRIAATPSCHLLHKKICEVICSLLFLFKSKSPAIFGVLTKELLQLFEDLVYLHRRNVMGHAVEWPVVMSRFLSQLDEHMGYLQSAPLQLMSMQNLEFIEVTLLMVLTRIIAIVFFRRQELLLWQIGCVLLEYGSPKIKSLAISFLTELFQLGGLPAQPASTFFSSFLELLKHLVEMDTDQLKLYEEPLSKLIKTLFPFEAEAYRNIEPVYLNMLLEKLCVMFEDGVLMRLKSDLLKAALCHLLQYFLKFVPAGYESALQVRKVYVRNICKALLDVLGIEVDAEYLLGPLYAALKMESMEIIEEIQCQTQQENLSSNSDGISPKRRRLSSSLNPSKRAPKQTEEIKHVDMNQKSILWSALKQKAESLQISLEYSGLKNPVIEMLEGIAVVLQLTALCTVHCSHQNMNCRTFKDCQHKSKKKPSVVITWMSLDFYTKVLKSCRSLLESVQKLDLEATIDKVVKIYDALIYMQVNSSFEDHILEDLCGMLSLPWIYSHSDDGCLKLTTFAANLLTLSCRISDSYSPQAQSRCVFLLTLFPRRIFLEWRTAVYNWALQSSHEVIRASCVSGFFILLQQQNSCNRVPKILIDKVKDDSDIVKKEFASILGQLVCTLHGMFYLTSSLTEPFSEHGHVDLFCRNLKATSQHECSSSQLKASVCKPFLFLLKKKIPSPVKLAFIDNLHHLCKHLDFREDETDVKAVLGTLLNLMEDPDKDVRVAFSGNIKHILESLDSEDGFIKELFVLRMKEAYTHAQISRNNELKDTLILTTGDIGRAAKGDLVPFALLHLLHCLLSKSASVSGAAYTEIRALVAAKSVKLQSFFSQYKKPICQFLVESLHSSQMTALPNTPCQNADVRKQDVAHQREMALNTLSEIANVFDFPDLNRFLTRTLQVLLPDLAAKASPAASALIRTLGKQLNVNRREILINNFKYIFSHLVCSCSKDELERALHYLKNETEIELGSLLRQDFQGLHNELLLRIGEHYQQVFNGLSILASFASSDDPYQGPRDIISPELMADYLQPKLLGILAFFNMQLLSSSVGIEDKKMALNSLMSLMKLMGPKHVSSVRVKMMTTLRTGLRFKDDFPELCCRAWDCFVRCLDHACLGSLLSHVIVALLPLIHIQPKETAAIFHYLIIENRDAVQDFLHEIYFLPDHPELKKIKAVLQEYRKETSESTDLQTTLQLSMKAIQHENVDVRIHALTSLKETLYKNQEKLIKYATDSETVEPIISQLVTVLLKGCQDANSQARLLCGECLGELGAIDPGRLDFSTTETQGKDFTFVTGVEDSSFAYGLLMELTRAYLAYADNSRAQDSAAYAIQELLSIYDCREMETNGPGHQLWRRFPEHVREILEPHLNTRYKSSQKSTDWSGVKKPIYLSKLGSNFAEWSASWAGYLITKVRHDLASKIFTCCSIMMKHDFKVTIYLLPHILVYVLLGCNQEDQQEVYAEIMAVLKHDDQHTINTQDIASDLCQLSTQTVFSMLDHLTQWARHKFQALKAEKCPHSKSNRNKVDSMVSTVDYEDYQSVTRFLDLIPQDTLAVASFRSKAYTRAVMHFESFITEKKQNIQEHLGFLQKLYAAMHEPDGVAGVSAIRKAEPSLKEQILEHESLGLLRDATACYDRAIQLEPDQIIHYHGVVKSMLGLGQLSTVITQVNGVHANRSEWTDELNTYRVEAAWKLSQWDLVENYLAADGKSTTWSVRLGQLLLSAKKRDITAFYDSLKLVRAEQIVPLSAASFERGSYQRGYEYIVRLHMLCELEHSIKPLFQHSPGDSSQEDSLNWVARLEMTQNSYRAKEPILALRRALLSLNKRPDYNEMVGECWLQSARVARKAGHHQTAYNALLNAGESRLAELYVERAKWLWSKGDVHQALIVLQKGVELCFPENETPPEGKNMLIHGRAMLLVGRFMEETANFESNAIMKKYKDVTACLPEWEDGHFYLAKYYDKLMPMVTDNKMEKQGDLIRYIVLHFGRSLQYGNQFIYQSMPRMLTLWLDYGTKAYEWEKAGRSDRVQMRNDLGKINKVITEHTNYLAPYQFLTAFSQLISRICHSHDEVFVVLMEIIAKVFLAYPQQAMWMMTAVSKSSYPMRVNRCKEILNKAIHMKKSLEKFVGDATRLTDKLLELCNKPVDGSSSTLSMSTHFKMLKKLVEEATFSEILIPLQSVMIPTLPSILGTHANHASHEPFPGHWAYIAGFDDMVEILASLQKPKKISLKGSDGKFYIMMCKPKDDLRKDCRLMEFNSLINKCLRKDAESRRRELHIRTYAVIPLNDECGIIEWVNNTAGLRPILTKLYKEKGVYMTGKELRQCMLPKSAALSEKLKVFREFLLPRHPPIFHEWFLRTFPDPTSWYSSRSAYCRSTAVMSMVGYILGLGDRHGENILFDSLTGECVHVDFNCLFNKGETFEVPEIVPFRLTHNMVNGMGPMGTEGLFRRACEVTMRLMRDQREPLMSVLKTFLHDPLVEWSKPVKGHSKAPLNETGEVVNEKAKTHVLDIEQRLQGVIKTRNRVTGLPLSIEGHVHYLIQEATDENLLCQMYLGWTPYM
Chain of Cyclin-dependent kinase 7 (P50613 whole entry): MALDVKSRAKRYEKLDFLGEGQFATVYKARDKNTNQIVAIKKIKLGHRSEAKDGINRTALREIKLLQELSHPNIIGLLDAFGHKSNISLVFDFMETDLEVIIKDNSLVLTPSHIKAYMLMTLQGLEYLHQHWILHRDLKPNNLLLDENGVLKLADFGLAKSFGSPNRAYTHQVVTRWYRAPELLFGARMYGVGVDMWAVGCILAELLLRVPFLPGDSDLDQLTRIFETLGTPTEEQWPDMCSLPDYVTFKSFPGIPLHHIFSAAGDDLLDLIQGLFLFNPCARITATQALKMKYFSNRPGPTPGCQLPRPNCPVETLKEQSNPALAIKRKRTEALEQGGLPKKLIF
Chain of Activin receptor type-1B (P36896 whole entry): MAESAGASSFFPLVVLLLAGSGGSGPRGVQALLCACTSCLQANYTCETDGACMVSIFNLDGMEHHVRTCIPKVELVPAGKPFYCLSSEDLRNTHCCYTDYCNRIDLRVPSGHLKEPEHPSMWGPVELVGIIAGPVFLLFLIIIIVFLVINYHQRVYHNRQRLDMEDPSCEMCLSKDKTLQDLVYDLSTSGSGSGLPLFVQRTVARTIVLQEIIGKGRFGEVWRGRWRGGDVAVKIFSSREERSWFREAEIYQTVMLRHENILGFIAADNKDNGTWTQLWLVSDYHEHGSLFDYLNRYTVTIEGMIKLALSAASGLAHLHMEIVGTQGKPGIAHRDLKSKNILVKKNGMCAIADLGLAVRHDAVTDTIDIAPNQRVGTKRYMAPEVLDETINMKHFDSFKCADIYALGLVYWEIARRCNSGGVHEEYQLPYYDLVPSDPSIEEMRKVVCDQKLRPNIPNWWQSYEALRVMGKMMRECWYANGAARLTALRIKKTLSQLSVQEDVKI
Chain of Glycogen synthase kinase-3 beta (P49841 whole entry): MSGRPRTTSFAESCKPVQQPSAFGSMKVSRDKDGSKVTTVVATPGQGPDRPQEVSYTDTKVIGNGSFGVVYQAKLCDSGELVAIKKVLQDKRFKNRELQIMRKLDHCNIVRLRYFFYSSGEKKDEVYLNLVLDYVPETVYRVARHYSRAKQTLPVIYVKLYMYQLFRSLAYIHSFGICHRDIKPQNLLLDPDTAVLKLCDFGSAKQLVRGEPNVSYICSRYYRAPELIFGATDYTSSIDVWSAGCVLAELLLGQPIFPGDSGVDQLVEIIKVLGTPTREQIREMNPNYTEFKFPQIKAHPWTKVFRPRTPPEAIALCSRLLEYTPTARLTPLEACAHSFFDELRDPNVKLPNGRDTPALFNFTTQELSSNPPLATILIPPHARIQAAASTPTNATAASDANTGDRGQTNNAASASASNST

CC(C)(C)NS(=O)(=O)c1cncc(-c2ccn3nc(N)nc3c2)c1
half-life [1]: 1.2 h | Cmax [2]: 2500 nM | IC50 [3]: > 10 µM | IC50 [4]: > 10 µM | IC50 [5]: > 10 µM | IC50 [6]: > 10 µM | IC50 [7]: > 10 µM | IC50 [8]: > 10 µM | IC50 [9]: > 10 µM | IC50 [10]: > 10 µM | IC50 [11]: > 10 µM | IC50 [12]: > 10 µM | IC50 [13]: > 10 µM | IC50 [14]: > 10 µM | inhibition (INH) [15]: Active | IC50 [16]: > 10 µM | IC50 [17]: > 5.89 µM | IC50 [18]: > 10 µM | IC50 [19]: > 10 µM | IC50 [20]: > 10 µM | IC50 [21]: > 10 µM | IC50 [22]: > 10 µM | inhibition in vivo at 3 mg/kg [23]: 41% | IC50 [24]: > 10 µM | Activity [25]: 18% | IC50 [26]: > 10 µM | IC50 [27]: > 10 µM | IC50 [28]: > 10 µM | IC50 [29]: > 10 µM | IC50 [30]: > 10 µM | IC50 [31]: > 10 µM | IC50 [32]: > 10 µM | bioavailability [33]: 88%
